What all share (test): growth of human tumour cells (NCI), 48 h
The test system of assay [1] is PC-3 prostate.
Assay [2] has as its system IGROV1 ovarian.
Assay [3] deals with HL-60(TB) leukemia.
In assay [4] the test system is COLO 205 colon.
The test system of assay [5] is HCT-116 colon.
The subject of assay [6] is NCI-H226 lung.
Assay [7] relates to SNB-75 CNS.
The test system of assay [8] is EKVX NSCLC.
Assay [9] deals with OVCAR-8 ovarian.
In assay [10] the test system is 786-0 renal.

Among the data in PubChem BioAssay (NCI) are TGI and GI50 values, retold here.

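Tested at 5 concentrations; 48 h exposure; 96-well plates; endpoints linearly interpolated, else capped at highest concentration. The concentration for 50% growth inhibition is given as GI50. TGI marks complete inhibition of growth.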

For `COC1=CC(=O)CC(C)C12Oc1c(Cl)c(OC)cc(OC)c1C2=O` (centres undefined), the TGI in assay [1] is above 70.3 µM; in assay [2] it was above 100 µM; in [3], above 44.1 µM; in assay [4], 64 µM; in assay [5] it was above 93.7 µM; in [6], above 100 µM. For the same compound, the TGI in assay [7] was 28.5 µM; in [8] it was above 100 µM; in assay [9] it was above 100 µM; in assay [10], above 100 µM.
`O=C1C(Cl)=C(N(C(=O)c2ccccc2)C(=O)c2ccccc2)C(=O)c2ccccc21`: the TGI in assay [1] is above 100 µM; in assay [2] it was above 100 µM; in [3], 3.15 µM; in assay [4], 31 µM; in [5], 17.6 µM; in assay [6], above 100 µM. For the same compound, the TGI in assay [7] is 24 µM; in assay [8], above 100 µM; in assay [9] it was above 100 µM; in assay [10], 34.7 µM.
Turning to `O=C(Nc1cccc([N+](=O)[O-])c1)c1n[nH]n(-c2cccc([N+](=O)[O-])c2)c1=O`, the TGI in [1], in [2], in [3], in assay [4], in assay [5] and in assay [6] was above 100 µM each time. Moreover, the TGI in assay [7], in assay [8], in assay [9] and in assay [10] was above 100 µM each time.
For the compound `Nc1[nH]nc2nc3ccccc3nc12`, the TGI in assay [1] is above 100 µM; in assay [2], 99.2 µM; in [3], above 100 µM; in assay [4] it was above 100 µM; in [5], above 100 µM; in [6], above 100 µM. Moreover, the TGI in [7], in assay [8] and in assay [9] was above 100 µM each time.
In the case of `COC1=CC2(CC(OC)=C1OC)OC21COc2ccccc2C1=O` (centres undefined), the TGI in assay [1], in assay [2], in [3], in assay [4], in [5] and in [6] was above 100 µM in each case. In addition, the TGI in assay [7], in assay [8], in assay [9] and in [10] was above 100 µM in each case.
Consider `Clc1cccc(NN=Nc2ccc(-c3nc4ccccc4s3)cc2)c1`, for which the TGI in [1] was above 100 µM; in assay [2] it was 54.5 µM; in [3], 27.2 µM; in [4], above 100 µM; in [5] it was above 100 µM; in assay [6] it was above 100 µM. Further, the TGI in [7] was 66.1 µM; in assay [8] it was above 100 µM; in assay [9] it was 45.9 µM; in assay [10], 51.4 µM.
In the case of `O=c1oc2ccccc2cc1-c1cn2c(n1)sc1ccccc12`, the TGI in [1], in [2], in assay [3], in assay [4], in [5] and in assay [6] was above 100 µM each time. The TGI in assay [7] is above 100 µM; in assay [8] it was 34.3 µM; in assay [9] it was above 100 µM; in assay [10] it was above 100 µM.
With `Cn1c(CO)ccc1-c1ccc(-c2ccc[se]2)[se]1`, the TGI in assay [1] was above 100 µM; in assay [3], above 63.2 µM; in [4], above 84.2 µM; in assay [6], 4.78 µM; in [7], 37.2 µM; in assay [8], above 100 µM. In addition, the TGI was above 100 µM in assay [9] and above 71.2 µM in assay [10].
On to `CCOC(=O)NC(OC)(C(F)(F)F)C(F)(F)F`, for which the TGI in assay [1], in assay [2], in assay [3], in assay [4], in [5] and in assay [6] was above 100 µM each time. Moreover, the TGI in assay [7], in assay [8], in assay [9] and in [10] was above 100 µM throughout.
As for `COc1ccc(C2C(C#N)=C(S)N(C3OC(COC(C)=O)C(OC(C)=O)C(OC(C)=O)C3OC(C)=O)C(c3ccccc3)=C2C(C)=O)cc1` (centres undefined), the TGI in [1], in [2], in [3], in [4], in [5] and in [6] was above 100 µM throughout. The TGI in assay [7], in assay [9] and in [10] was above 100 µM throughout.
Regarding `Cc1cc(S(=O)(=O)Nc2nnc3cnc4ccccc4n23)c(S)cc1Cl`, the TGI in [1], in assay [2], in [3], in assay [4], in [5] and in assay [6] was above 100 µM in each case. Further, the TGI in assay [7], in [8], in [9] and in assay [10] was above 100 µM each time.
Take `NC(CSSCC(N)=NCC12CC3CC(CC(C3)C1)C2)=NCC12CC3CC(CC(C3)C1)C2`: the TGI in [1] came to 29.9 µM; in [2] it was 40.9 µM; in assay [3], 26.3 µM; in assay [4], 52.5 µM; in assay [5], 80.9 µM; in assay [6], 43.3 µM. Besides, the TGI was 45.2 µM in assay [7], 51.4 µM in [9] and above 100 µM in assay [10].
`N=c1c2c(=S)n(-c3ccccc3)c(=S)n(-c3ccccc3)c2nc(SCCN2CCCC2)n1-c1ccccc1`: the TGI was 3.3 µM in [1]; 3.52 µM in assay [2]; 0.88 µM in assay [3]; 3.17 µM in assay [4]; 4.43 µM in [5]; 18.4 µM in [6]. The TGI in assay [7] is 8.29 µM; in assay [8] it was 7.23 µM; in assay [9] it was 4.2 µM; in assay [10], 2 µM.
As for `CC(C)(C)c1cc(OCc2nn3c(Cc4ccccc4)nnc3s2)c(Cl)cc1OCc1nn2c(Cc3ccccc3)nnc2s1`, the TGI in assay [1] was above 100 µM; in [2], above 100 µM; in assay [3] it was 97.9 µM; in assay [4], above 100 µM; in [5] it was above 100 µM; in assay [6], above 100 µM. The TGI in assay [7], in [8], in assay [9] and in [10] was above 100 µM in each case.
As to `C[C@@H]1C(=O)C[C@H]2C(C)(C)CCC[C@]2(C)[C@@]1(O)CCc1ccoc1`, the TGI in assay [1], in [2], in assay [3], in [4], in assay [5] and in assay [6] was above 100 µM throughout. The TGI in assay [7], in assay [8], in [9] and in [10] was above 100 µM each time.
Turning to `C=C1CC(Cn2ccc(=O)[nH]c2=O)(c2ccc(Cl)cc2)OC1=O` (centres undefined), the TGI in assay [1] was 19.2 µM; in assay [2], 9.98 µM; in [3], above 100 µM; in [4], 3.44 µM; in assay [5] it was 5.63 µM; in assay [6] it was 49.9 µM. The TGI in assay [7] is 30.9 µM; in [8], 35 µM; in [9], 24.5 µM; in assay [10], 4.83 µM.
On to `C=C(C)COC1CCCCO1` (centres undefined), for which the TGI in assay [1], in [2], in [3], in assay [4], in assay [5] and in assay [6] was above 100 µM in each case. The TGI in assay [7], in assay [8], in [9] and in [10] was above 100 µM in each case.
With `CCOC(=O)Nc1ccc2c(c1)c(CCCCCCc1nc3ccccc3c3ccc(NC(=O)OCC)cc13)nc1ccccc12`, the TGI in [1] was above 100 µM; in [2], above 100 µM; in [3], above 100 µM; in assay [4], above 100 µM; in assay [5], above 100 µM; in assay [6], 81 µM. Moreover, the TGI was 45.3 µM in [7], above 100 µM in assay [8], 61.3 µM in assay [9] and 42.4 µM in assay [10].
Regarding `CC(=O)Oc1c(-c2ccccc2)sc2ccccc12`, the TGI in assay [1] is 97.5 µM; in assay [2], 30.7 µM; in assay [3], 39.6 µM; in assay [4] it was 30.2 µM; in assay [5], 26.1 µM; in assay [6] it was 28.8 µM. Also, the TGI was 34.8 µM in assay [7], 53 µM in assay [8], above 100 µM in assay [9] and 28.9 µM in assay [10].
Take `NC1=Nc2cc(Cl)ccc2Sc2nc3ccccc3n21`: the TGI in assay [1] is above 100 µM; in [2] it was above 100 µM; in assay [3] it was 7.49 µM; in assay [4], above 100 µM; in assay [6], above 100 µM; in assay [7], above 86.4 µM. The TGI in [8], in [9] and in assay [10] was above 100 µM each time.
In the case of `O=C(N/N=C\c1ccc(N(CCCl)CCCl)cc1[N+](=O)[O-])c1cccnc1`, the GI50 in assay [1], in [2], in assay [3], in assay [4], in [5] and in assay [6] was above 100 µM each time. Besides, the GI50 in assay [7], in assay [8] and in assay [9] was above 100 µM throughout. For the same compound, the TGI in assay [1], in assay [2], in assay [3], in [4], in assay [5] and in assay [6] was above 100 µM throughout. In addition, the TGI in assay [7], in assay [8] and in [9] was above 100 µM in each case.
Regarding `COc1cc2c(c(O)c1OC)CC1CCC(=O)N1C2c1cccc2ccccc12` (centres undefined), the TGI was 43.7 µM in assay [1]; 59.3 µM in assay [2]; above 100 µM in [3]; 28.9 µM in [4]; 45.3 µM in assay [5]; above 100 µM in assay [7]. The TGI in [8] was 54.5 µM; in [9], above 100 µM; in assay [10], 94.5 µM.
On to `CC(=O)NC(C)(C)C1CCC(C)=C(c2ccccc2)C1` (centres undefined), for which the TGI in [1], in assay [2], in [3], in assay [4], in assay [5] and in assay [7] was above 100 µM throughout. For the same compound, the TGI in assay [8], in assay [9] and in assay [10] was above 100 µM each time.
For the compound `CCOC(=O)c1nc2ccc(C(F)(F)F)cc2nc1Nc1ccc(Cl)c(Cl)c1`, the TGI in assay [1], in assay [2], in assay [3], in [4], in [5] and in assay [7] was above 100 µM in each case. In addition, the TGI in assay [8], in assay [9] and in [10] was above 100 µM throughout.
Take `COc1cc(OC)cc(-c2n/c(=C\c3c(O)[nH]c4ccc(OC)cc34)cc3c2=Nc2ccccc2-3)c1`: the GI50 was 20.5 µM in assay [1]; 25.2 µM in assay [2]; 16.6 µM in assay [3]; 1.67 µM in assay [5]; 26.6 µM in [6]; 18.5 µM in [7]. Also, the figures for the GI50 in assay [8] and in [9] were 25.2 µM and 12.1 µM, respectively. Also, the TGI in assay [1] was found to be 62.2 µM; in assay [2], 68.4 µM; in assay [3], 36.2 µM; in assay [5], 3.16 µM; in assay [6], 56.9 µM; in assay [7] it was 34.3 µM. In addition, the TGI worked out at 80.9 µM in [8] and 32.4 µM in assay [9].
`CC(=O)Oc1ccc2c(c1)CC[C@@H]1C2[C@@H](O[N+](=O)[O-])C[C@@]2(C)C1CC[C@@H]2O[N+](=O)[O-]` (some centres undefined): the TGI amounted to 22.9 µM in assay [1]; 30.7 µM in assay [2]; 53.6 µM in assay [3]; 34.2 µM in assay [4]; 23.2 µM in assay [5]; 28.7 µM in assay [7]. For the same compound, the TGI came to 26.6 µM in [8], 33.4 µM in [9] and 28.4 µM in assay [10].
